Patent publication US11033535B2, “Oxadiazoles and thiadiazoles as TGF-β inhibitors” (Southern Research Institute, priority 2017, dated 2021)
One block for each compound: values may come before it.

What was measured:
[1] = system: BLM induced lung fibrosis; experiment: BLM induced unilateral lung fibrosis model; format: in vivo, SD rats; design: left lung bronchial and arteriole damages (score), In the fibrosis core (n = 6) / left lung bronchial and arteriole damages (score), In the border of fibrosis (n = 6): scale not given here; details: for body weight, Changes in the ratio (%) / body weight: 10 mg/kg/d ip (n = 6); for body weight: in g (unit assumed)
Experimental: Species and quality level: SD rats, SPF grade; Gender and number: male, 12; Purchasing body weight range: 260-280 g; Company Certificate No.: SCXX (zhe) 2018-0001, Zhejiang Vital River Laboratory Animal Technology Co., Ltd.
Model Establishment: This study was carried out in strict accordance with the SOP institutional guidelines for the care and use of laboratory animals. Rats were anesthetized by intraperitoneal injection of pentobarbital sodium at dose of 50 mg/kg. Then rat neck skin was disinfected and opened in layers. The trachea was exposed carefully. Bleomycin (BLM) was directly injected into left main bronchus at a dose of 3 mg/kg body weight in volume of 1.0 ml/kg via a cannula. After closing the trachea and skin in layers the animal was moved on an electric heat pad at 37° C. to wait waking up from anesthesia before returning to holding cages with free access to water and diet.
Rats were assigned into two groups: Model (Group-1, n=6), CPD-X (Group-2, 10 mg/kg/d, n=6) (Table 13).
a Test article, CPD-X was designed as an intraperitoneal injection once a day starting from day-8 of modeling for 14 days (Table 13). The saline as a vehicle for model group via a ip injection once a day for 14 days.
One day after the last dosing all animals were euthanized according to the standard SOP at KCl. After confirming the animal death the left lung BALF was collected according the standard SOP at KCl. The BALF was frozen in liquid nitrogen and stored at −80° C. The left lungs then were perfused with equal volume of 10% formaldehyde solution (3 mL for each lung).
Lung pathology was processed after lung fixation. All animal hearts were collected at same time, weighted, and fixed in 10% formaldehyde solution for histology examination.
The whole left lung was dehydrated and wax embedded following KCl pathology SOP, then sectioned at […] in thickness. HE and Masson Trichrome staining were processed following KCl pathology standard staining SOPs, whole slides were then scanned by Hamamatsu NanoZoomer Digital Pathology S210 slide scanner after staining. Bronchiole and pulmonary arteriole damage and inflammatory cell infiltration in fibrosis core and fibrotic board area were scored with H&E stained slides (Table 14 and Table 15, FIG. 8), for which 5 different areas were selected in each lung slide. BLM induced left lung injury area and Ashcraft scoring for fibrosis were evaluated with Masson Trichrome stained slides (Table 16 and FIG. 9), for which 10 different areas were selected in each lung slide.
The animal hearts were dehydrated and wax embedded following KCl pathology SOP, then sectioned at […] in thickness. HE staining was processed following KCl pathology standard staining SOPs, whole slides were then scanned by Hamamatsu NanoZoomer Digital Pathology S210 slide scanner after staining. The thickness of left ventricle wall (LV), septum and right ventricle wall (RV) were measured at five different points and calculated the average thickness of LV, septum and RV.
a Statistical analysis was performed using Graphpad prism 6.0 software. Descriptive results were expressed as mean±sem or mean±sd. Statistical comparisons were performed using t-test, two-way ANOVA analysis. The p value <0.05 was considered as statistically significant.

[2] = system: BLM induced lung fibrosis; experiment: BLM induced unilateral lung fibrosis model; format: in vivo, SD rats; details: 10 mg/kg/d ip (n = 6), day 77
[3] = target: (Homo sapiens, UniProt P07996); experiment: Secondary Assay, inhibitory activity of thiadiazole and oxadiazole analogs as TGF-beta inhibitors; format: biochemical; details: Table I
Experimental: A summary of the inhibitory activity of representative thiadiazole analogs (Tables i and ii) and oxadiazole analogs (Table ii) is shown below.
(§1) For initial screening, an ELISA-based screening assay was used in which purified human platelet TSP-1 was incubated with compounds and then incubated with recombinant latent TGF-β1 (purchased from R&D Systems). Activity is measured in a commercially available ELISA which detects only active TGF-β (R &D Systems). Activity in the presence of compounds is compared to activity in TSP-1+latent TGF-β samples without inhibitory compounds (Lu et al. (2016) Am J Pathol 186:678-690).
To specifically assess activity of compounds in liver cell specific assays, two different assays were used. In the first, human hepatic stellate cells were incubated overnight in low serum media to condition the media with secreted latent TGF-β. Purified TSP1 either pre-incubated with compounds or not will be added to cultures and then conditioned media harvested to assess TGF-β biological activity using the R&D Systems ELISA as above. Hepatic stellate cells will be purchased from commercial sources. Although hepatic stellate cells are the primary drivers of liver fibrosis, conditions which drive liver fibrosis can induce hepatocyte TSP-1 expression which can then have paracrine effects on controlling TGF-β activation in hepatic stellate cells. Furthermore, TGF-β can negatively impact hepatocyte regeneration following injury. Therefore, the ability of compounds to block TSP-1 activation of latent TGF-β will also be assessed in cultured primary human hepatocytes following the protocol described for the hepatic stellate cells. Similar approaches have successfully been used to screen compounds which inhibit human myeloma cell derived latent TGF-β activation by TSP-1 (Lu et al. (2016) Am J Pathol 186:678-690).
Target sequence in this assay (P07996 whole entry): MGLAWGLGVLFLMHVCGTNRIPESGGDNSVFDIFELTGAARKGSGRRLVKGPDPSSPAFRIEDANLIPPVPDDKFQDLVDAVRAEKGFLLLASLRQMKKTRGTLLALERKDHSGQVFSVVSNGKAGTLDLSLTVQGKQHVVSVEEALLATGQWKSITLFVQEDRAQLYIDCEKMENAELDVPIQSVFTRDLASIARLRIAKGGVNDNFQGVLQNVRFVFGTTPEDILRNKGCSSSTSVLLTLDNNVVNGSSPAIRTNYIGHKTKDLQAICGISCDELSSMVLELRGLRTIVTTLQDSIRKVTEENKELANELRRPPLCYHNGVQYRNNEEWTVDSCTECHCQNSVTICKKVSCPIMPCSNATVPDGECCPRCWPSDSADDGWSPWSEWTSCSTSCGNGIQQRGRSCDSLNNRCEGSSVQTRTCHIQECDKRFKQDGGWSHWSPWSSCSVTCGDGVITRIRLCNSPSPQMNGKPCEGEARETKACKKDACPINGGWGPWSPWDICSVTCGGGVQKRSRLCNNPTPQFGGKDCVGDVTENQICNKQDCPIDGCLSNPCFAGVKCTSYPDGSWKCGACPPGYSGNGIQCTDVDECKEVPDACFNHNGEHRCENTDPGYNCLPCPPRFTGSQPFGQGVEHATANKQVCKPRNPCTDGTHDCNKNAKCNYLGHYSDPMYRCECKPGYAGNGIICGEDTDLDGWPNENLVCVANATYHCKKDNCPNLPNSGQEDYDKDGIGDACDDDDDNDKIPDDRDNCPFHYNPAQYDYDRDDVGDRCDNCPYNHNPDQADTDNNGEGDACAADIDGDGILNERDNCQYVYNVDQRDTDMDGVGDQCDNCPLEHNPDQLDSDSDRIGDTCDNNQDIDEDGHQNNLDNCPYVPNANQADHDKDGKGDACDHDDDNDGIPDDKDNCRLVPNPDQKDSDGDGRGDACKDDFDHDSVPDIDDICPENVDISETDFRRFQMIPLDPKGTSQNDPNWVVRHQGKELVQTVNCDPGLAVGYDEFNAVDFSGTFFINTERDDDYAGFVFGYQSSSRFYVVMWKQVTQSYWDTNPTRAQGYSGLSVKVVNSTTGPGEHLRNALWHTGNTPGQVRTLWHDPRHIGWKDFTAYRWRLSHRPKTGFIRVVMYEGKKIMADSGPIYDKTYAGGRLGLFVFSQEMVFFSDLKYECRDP

[4] = target: (Homo sapiens, UniProt P07996); experiment: ELISA based assays of TSP1 activation of latent TGF-β (purified protein components or TSP1-treated cell conditioned media); format: biochemical; design: purchased R&D Systems
Experimental: Compound 35 was evaluated for its ability to inhibit TGF-β in both ELISA based assays with purified protein components (latent TGFβ and TSP1 or in TSP1-treated cell conditioned media).
as §1
Target sequence in this assay (P07996 19-1170): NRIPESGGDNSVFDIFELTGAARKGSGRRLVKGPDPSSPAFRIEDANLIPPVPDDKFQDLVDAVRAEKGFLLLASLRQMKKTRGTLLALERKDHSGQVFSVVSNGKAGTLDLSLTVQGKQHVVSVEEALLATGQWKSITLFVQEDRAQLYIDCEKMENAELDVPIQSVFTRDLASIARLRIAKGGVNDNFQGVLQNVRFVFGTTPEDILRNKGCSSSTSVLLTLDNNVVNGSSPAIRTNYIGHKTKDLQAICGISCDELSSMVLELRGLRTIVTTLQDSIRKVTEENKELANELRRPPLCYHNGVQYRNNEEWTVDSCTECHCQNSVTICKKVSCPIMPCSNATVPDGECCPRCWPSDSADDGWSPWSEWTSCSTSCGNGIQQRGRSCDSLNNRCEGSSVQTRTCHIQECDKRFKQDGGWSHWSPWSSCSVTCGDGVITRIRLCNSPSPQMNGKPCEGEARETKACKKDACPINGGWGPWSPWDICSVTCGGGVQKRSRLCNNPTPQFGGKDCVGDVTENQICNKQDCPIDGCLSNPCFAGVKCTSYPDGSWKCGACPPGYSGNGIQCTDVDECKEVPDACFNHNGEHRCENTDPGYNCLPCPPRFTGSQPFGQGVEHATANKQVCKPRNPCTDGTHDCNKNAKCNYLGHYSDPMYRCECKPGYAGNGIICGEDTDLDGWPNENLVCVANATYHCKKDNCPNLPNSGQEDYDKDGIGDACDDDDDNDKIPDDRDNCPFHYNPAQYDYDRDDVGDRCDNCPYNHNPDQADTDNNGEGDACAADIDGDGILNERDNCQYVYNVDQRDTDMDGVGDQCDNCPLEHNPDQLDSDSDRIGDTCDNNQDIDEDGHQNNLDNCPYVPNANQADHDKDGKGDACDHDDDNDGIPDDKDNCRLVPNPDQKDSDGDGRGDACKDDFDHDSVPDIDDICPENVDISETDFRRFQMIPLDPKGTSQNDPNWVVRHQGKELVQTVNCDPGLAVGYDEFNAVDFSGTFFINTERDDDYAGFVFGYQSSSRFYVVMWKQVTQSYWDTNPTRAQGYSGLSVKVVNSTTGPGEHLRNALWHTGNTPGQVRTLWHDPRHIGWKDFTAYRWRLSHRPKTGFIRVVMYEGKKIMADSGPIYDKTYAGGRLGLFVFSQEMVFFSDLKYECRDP

[5] = 10 mg/kg ip QD 14 days from day-8, p < 0.05 vs. model

SMILES: CC(=O)NC(Cc1ccc(CN)cc1)c1nnc(-c2cccc(OC(F)(F)F)c2)s1 (stereo not shown) [CPD-X]
body weight recovery vs. model group [1]: significant difference in body recovery
fibrosis by Ashcraft scoring [1]: significant reduction in fibrosis
share of fibrosis score ≤3 [1]: about 80%
left lung bronchial and arteriole damages (score), In the fibrosis core (n = 6) ([1]; 10 mg/kg ip QD 14 days from day-8, H&E, p < 0.001 vs. model): 6.23 ± 0.67
left lung bronchial and arteriole damages (score), In the border of fibrosis (n = 6) ([1]; 10 mg/kg ip QD 14 days from day-8, H&E, p < 0.01 vs. model): 4.8 ± 0.54
Lang damage area (%) ([1]; 10 mg/kg ip QD 14 days from day-8, Masson Trichrome, left lung): 70.69 ± 10.66%
Ashcraft fibrosis score ([1]; 10 mg/kg ip QD 14 days from day-8, Masson Trichrome, p < 0.01 vs. model): 2.55 ± 0.29
% of fibrosis score (≤3) [1, 5]: 90 ± 10.95 %
% of fibrosis score (≥4) [1, 5]: 10 ± 10.95 %
body weight, Changes in the ratio (%) ([1]; day 0): 0%
body weight ([1]; day 0): 286.0 ± 6.1
body weight, Changes in the ratio (%) ([1]; day 2): −9.6 ± 3.6%
body weight ([1]; day 2): 258.7 ± 13.4
body weight, Changes in the ratio (%) ([1]; day 5): −8.3 ± 6.7%
body weight ([1]; day 5): 262.4 ± 22.6
body weight, Changes in the ratio (%) ([1]; day 7): −4.4 ± 7.6%
body weight ([1]; day 7): 273.6 ± 24.9
body weight, Changes in the ratio (%) ([1]; day 9): −0.8 ± 7.5%
body weight ([1]; day 9): 283.9 ± 24.5
body weight, Changes in the ratio (%) ([1]; day 11): 2.8 ± 7.0%
body weight ([1]; day 11): 294.1 ± 23.5
body weight, Changes in the ratio (%) ([1]; day 13): 5.5 ± 6.4%
body weight ([1]; day 13): 302.0 ± 22.0
body weight, Changes in the ratio (%) ([1]; day 15): 8.2 ± 6.1%
body weight ([1]; day 15): 309.0 ± 20.4
body weight, Changes in the ratio (%) ([1]; day 17): 13.7 ± 6.4%
body weight ([1]; day 17): 325.3 ± 21.2
body weight, Changes in the ratio (%) ([1]; day 19): 14.4 ± 5.9%
body weight ([1]; day 19): 327.3 ± 20.7
body weight, Changes in the ratio (%) ([1]; day 21): 18.4 ± 5.3%
body weight ([1]; day 21): 338.9 ± 19.4
therapeutic effect (summary) ([1]; ip from day-8 of modeling for 14 days): significant improvement in bronchial and arteriole damage and alveolar fibrosis
right ventricle wall thickness ([1]; no statistic difference as compared to model group): slightly limited the right ventricle wall thickness
bronchial and arteriole damages in fibrotic core and border of fibrosis ([1]; p<0.001): significant therapeutic effect on reduction of bronchial and arteriole damages
body weight, Changes in the ratio (%) [2]: 19.4 ± 5.4%
body weight ([2]; in g (unit assumed)): 341.6 ± 18.8

IC50 [3]: 0.0269 µM
SMILES: CC(=O)N[C@H](Cc1ccc(CN)cc1)c1nnc(-c2cccc(OC(F)(F)F)c2)s1 (single isomer, unassigned) [Compound 41892]

IC50 [3]: 0.008 µM
SMILES: COc1cc(C)cc(-c2nnc(C(Cc3ccc(CN)cc3)NC(C)=O)s2)c1 (stereo not shown) [Compound 42473]

IC50 [3]: 0.008 µM
SMILES: CC(=O)NC(Cc1ccc(CN)cc1)c1nnc(-c2cc(C)cc(OC(F)(F)F)c2)s1 (stereo not shown) [Compound 42470]

inhibition of TGF-β ([4]; at 1 pm): 15%
inhibition of TGF-β ([4]; at 50 pm): 67%
inhibition of TGF-β ([4]; at 100 pm): 67%
SMILES: CC(=O)N[C@@H](CCCCN)c1nnc(-c2ccccc2)s1 [Compound 35, (S)—N-(5-amino-1-(5-phenyl-1,3,4-thiadiazol-2-yl)pentyl)acetamide]

IC50 [3]: 0.033 µM
SMILES: CC(=O)NC(Cc1ccc(CN)cc1)c1nnc(-c2ccncc2)s1 (stereo not shown) [Compound 39245, N-(2-(4-(aminomethyl)phenyl)-1-(5-(pyridin-4-yl)-1,3,4-thiadiazol-2-yl)ethyl)acetamide]
